The values that follow come from US10202381B2, “Histone demethylase inhibitors” (CELGENE QUANTICEL RESEARCH, INC., priority 2014, dated 2019).

The structures appear in SMILES notation.

Test [1] has as its system KYSE-150 esophageal carcinoma cell line. Description: In vitro cell-based assay: BrdU cell proliferation ELISA. Details: species or system human. The conditions noted are these: Homo sapiens; KYSE-150 cells, BrdU incorporation after 168 hr of compound incubation; read-out: Cellular IC50. The procedure:
Cell lines tested include the JMJD2C gene amplified cell line KYSE-150. This is a quantitative ELISA assay measuring DNA incorporation of BrdU during S-phase as a direct readout of cellular proliferation.
Assay Principle: This is a colorimetric immunoassay for the quantification of cell proliferation. Cells treated for 168 hr with test compounds are assayed for their ability to go through S-phase as a measure of their proliferative potential.
Assay Method: The human KYSE-150 (SMAD4 mut, TP53 mut) esophageal carcinoma cell line was seeded at 2,000 cells/well on a 96-well tissue culture treated plate. After an overnight incubation, cells were treated with compound in an 11-point dilution series with final concentrations ranging from 100 μM to 2 nM. Cells were then incubated in the presence of compound for 168 hr. After compound incubation the cells were assayed using a BrdU Cell Proliferation ELISA (Roche). The cells were first incubated with BrdU labeling reagent for 2 hr. After 2 hr, the BrdU incorporated cells were fixed and denatured, probed with an anti-BrdU-Peroxidase antibody for 1.5 hr and washed. Finally, a tetramethylbenzidine peroxidase substrate was added to each well for 15 min. followed by a H2SO4 stop solution. The plate was read at 450 nm, and the raw optical density data was transferred into XLFit (IDBS) for IC50 calculation using the formula: fit=(D+((Vmax*(x^n))/((x^n)+(Km^n)))).
Table 4 provides the cellular IC50 values of various compounds disclosed herein.

The next test concerns the target JMJD2C (Homo sapiens (Human), UniProt Q9H3R0). The test is described as follows: In vitro enzyme inhibition assay (JMJD2C TR-FRET). It is filed as biochemical. The conditions noted are these: 0.3 nM JMJD2C, 300 nM H3K9me3-biotin peptide, 2 μM alpha-ketoglutaric acid. How it is done:
This assay determines the ability of a test compound to inhibit JMJD2C demethylase activity. Baculovirus expressed JMJD2C (GenBank Accession #BC143571, AA 2-372) was purchased from BPS Bioscience (Cat#50105).
The ability of test compounds to inhibit the activity of JMJD2C was determined in 384-well plate-format under the following reaction conditions: 0.3 nM JMJD2C, 300 nM H3K9me3-biotin labeled peptide (Anaspec cat #64360), 2 μM alpha-ketoglutaric acid in assay buffer of 50 mM HEPES, pH 7.3, 0.005% Brij35, 0.5 mM TCEP, 0.2 mg/ml BSA, 50 μM sodium L-ascorbate, and 2 μM ammonium iron(II) sulfate. Reaction product was determined quantitatively by TR-FRET after the addition of detection reagent Phycolink Streptavidin-allophycocyanin (Prozyme) and Europium-anti-di-methylated histone H3 lysine 9 (H3K9me2) antibody (PerkinElmer) in the presence of 5 mM EDTA in LANCE detection buffer (PerkinElmer) at a final concentration of 50 nM and 1 nM, respectively.
The assay reaction was initiated by the following: 2 μl of the mixture of 900 nM H3K9me3-biotin labeled peptide and 6 μM alpha-ketoglutaric acid with 2 μl of 11-point serial diluted inhibitor in 3% DMSO were added to each well of the plate, followed by the addition of 2 μl of 0.9 nM JMJD2C to initiate the reaction. The reaction mixture was incubated at room temperature for 30 min, and terminated by the addition of 6 μl of 5 mM EDTA in LANCE detection buffer containing 100 nM Phycolink Streptavidin-allophycocyanin and 2 nM Europium-anti-H3K9me2 antibody. Plates were read by EnVisionMultilabel Reader in TR-FRET mode (excitation at 320 nm, emission at 615 nm and 665 nm) after 1 hr incubation at room temperature. A ratio was calculated (665/615) for each well and fitted to determine inhibition constant (IC50).
The ability of the compounds disclosed herein to inhibit demethylase activity was quantified and the respective IC50 value was determined. Table 3 provides the IC50 values of various compounds disclosed herein.

Chain of JMJD2C (Q9H3R0 2-372): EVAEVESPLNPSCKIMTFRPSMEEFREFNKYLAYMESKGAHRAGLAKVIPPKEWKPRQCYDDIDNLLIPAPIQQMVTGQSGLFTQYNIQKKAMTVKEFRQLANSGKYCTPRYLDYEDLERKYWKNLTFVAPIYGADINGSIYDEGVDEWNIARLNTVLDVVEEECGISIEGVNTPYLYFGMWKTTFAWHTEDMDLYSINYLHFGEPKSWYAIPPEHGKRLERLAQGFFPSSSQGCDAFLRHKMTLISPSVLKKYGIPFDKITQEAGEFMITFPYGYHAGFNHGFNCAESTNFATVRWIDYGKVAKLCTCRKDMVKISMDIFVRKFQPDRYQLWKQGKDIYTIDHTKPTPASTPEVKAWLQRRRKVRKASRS

As for `Cc1cc(Oc2nc(O)c3ccncc3n2)ccc1N(C)c1cccc(N2CCN(C)CC2)c1` [Example 134, 2-(3-methyl-4-(methyl(3-(4-methyl-piperazin-1-yl)phenyl)amino)phenoxy)pyrido[3,4-d]pyrimidin-4-ol], the half-inhibitory concentration (IC50) in test [1] was 1000 to 10000 nM; against JMJD2C it was not above 100 nM.

In the case of `CCc1ccc(N(C)c2ccc(Oc3nc(O)c4ccncc4n3)cc2)cc1OC` [Example 135, 2-(4-((4-ethyl-3-methoxyphenyl)(methyl)amino)phenoxy)pyrido[3,4-d]pyrimidin-4-ol], the results for the half-inhibitory concentration (IC50) (in test [1]; against JMJD2C) were 1000 to 10000 nM and 100 to 1000 nM, respectively.

For `CN1CCN(c2cc(N(C)c3ccc(Oc4nc(O)c5ccncc5n4)cc3)ccc2OCC(F)(F)F)CC1` [Example 136, -(4-(methyl(3-(4-methylpiperazin-1-yl)-4-(2,2,2-trifluoroethoxy)phenyl)amino)phenoxy)pyrido[3,4-d]pyrimidin-4-ol], the values for the concentration for half-maximal inhibition (IC50) (in test [1]; against JMJD2C) were 1000 to 10000 nM and not above 100 nM, respectively.

Consider `CCc1ccc(N(C)c2ccc(Oc3nc(O)c4ccncc4n3)cc2)c(OC)c1` [Example 137, 2-(4-((4-ethyl-2-methoxyphenyl)(methyl)amino)phenoxy)pyrido[3,4-d]pyrimidin-4-ol], for which the values for the IC50 (in test [1]; against JMJD2C) were more than 10000 nM and 100 to 1000 nM, respectively.

As for `CCN1CCN(c2cccc(N(C)c3ccc(Oc4nc(O)c5ccncc5n4)cc3)c2)CC1` [Example 138, 2-(4-((3-(4-ethylpiperazin-1-yl)phenyl)(methyl)amino)phenoxy)pyrido[3,4-d]pyrimidin-4-ol], the 50% inhibitory concentration (IC50) is 1000 to 10000 nM in test [1] and not above 100 nM against JMJD2C.

In the case of `CN1CCC(c2cccc(N(C)c3ccc(Oc4nc(O)c5ccncc5n4)cc3)c2)CC1` [Example 140, 2-(4-(methyl(3-(1-methylpiperidin-4-yl)phenyl)amino)phenoxy)pyrido[3,4-d]pyrimidin-4-ol], the half-inhibitory concentration (IC50) in test [1] is 100 to 1000 nM; against JMJD2C, not above 100 nM.

For `CCN(c1ccc(Oc2nc(O)c3ccncc3n2)cc1)c1cccc(N2CCN(C)CC2)c1` [Example 141, 2-(4-(ethyl(3-(4-methylpiperazin-1-yl)phenyl)amino)phenoxy)pyrido[3,4-d]pyrimidin-4-ol], the concentration for half-maximal inhibition (IC50) (in test [1]; against JMJD2C) was not above 100 nM throughout.
